Experimental findings from patent US9765065B2, “Therapeutic substituted cyclopentanes” (ALLERGAN, INC., priority 2007, dated 2017) are described below.

The target in assay [1] is T1, EP4 (Homo sapiens, UniProt P35408). The assay can be described thus: EP4 binding Ki. From the text: (§1) U.S. patent application Ser. No. 11/553,143, filed on Oct. 26, 2006, incorporated by reference herein in its entirety, describes the methods used to obtain the in vitro data in the table below.
Assay [2] has as its target T2, hEP3A (Homo sapiens, UniProt P43115).
T2 sequence (P43115 1-390): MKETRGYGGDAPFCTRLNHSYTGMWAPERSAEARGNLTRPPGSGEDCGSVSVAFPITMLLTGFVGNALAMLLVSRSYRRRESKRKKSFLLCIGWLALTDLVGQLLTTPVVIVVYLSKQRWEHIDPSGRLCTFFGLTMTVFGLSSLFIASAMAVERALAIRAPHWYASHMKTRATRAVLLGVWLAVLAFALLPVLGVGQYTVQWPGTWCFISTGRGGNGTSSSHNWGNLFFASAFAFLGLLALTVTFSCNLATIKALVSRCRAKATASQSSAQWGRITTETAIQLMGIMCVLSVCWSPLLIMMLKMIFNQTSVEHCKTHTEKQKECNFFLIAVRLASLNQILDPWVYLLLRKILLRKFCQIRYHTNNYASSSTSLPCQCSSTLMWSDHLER
The assay can be described thus: Other receptors hEP3A. The class given is cell-based.
From the text: as §1

Assay [3] concerns the target T1, EP4. The assay can be described thus: EP4 flipr. The class given is cell-based.
From the text: as §1

Assay [4] addresses T3, EP2 (Homo sapiens, UniProt P43116). The assay can be described thus: EP2 flipr. It is filed as cell-based.
From the text: as §1

The target of assay [5] is T3, EP2. Briefly: EP2 cAMP. The class given is cell-based.
From the text: as §1

Assay [6] has as its target T3, EP2. The assay can be described thus: EP2 binding Ki.
From the text: as §1

For assay [7], the target named is T4, hDP (Homo sapiens, UniProt Q13258).
T4 sequence (Q13258 1-359): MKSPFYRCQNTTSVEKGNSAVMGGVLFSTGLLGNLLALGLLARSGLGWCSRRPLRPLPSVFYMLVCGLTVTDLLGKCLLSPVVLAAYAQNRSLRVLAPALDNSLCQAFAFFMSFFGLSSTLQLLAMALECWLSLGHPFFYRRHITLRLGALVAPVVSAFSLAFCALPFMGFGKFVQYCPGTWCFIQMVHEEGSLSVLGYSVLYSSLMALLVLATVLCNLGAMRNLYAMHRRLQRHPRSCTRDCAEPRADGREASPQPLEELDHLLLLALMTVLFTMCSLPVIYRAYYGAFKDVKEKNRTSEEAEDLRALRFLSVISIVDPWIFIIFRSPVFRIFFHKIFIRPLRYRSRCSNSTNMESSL
Briefly: Other receptors hDP. The class given is cell-based.
From the text: as §1

The target in assay [8] is T5, hTP (Homo sapiens, UniProt P21731).
T5 sequence (P21731 1-343): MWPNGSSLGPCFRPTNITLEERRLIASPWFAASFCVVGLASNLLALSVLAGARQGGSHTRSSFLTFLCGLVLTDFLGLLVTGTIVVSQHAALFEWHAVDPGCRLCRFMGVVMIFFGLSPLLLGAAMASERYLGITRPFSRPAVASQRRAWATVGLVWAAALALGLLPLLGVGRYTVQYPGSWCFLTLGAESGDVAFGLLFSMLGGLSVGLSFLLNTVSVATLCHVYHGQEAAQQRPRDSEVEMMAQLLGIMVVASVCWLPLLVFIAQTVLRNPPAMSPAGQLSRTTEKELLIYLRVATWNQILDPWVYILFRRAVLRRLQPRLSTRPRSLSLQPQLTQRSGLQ
Briefly: Other receptors hTP. It is filed as cell-based.
From the text: as §1

T3 sequence (P43116 whole entry): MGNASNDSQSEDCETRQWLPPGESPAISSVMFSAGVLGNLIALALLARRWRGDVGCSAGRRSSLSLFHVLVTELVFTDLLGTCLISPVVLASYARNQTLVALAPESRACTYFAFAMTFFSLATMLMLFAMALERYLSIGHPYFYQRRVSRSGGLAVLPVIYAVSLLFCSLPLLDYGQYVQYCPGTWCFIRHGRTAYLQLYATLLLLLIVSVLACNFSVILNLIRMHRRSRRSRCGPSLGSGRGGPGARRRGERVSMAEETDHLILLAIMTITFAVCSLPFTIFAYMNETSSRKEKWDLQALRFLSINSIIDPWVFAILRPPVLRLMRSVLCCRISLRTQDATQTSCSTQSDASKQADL
T1 sequence (P35408 whole entry): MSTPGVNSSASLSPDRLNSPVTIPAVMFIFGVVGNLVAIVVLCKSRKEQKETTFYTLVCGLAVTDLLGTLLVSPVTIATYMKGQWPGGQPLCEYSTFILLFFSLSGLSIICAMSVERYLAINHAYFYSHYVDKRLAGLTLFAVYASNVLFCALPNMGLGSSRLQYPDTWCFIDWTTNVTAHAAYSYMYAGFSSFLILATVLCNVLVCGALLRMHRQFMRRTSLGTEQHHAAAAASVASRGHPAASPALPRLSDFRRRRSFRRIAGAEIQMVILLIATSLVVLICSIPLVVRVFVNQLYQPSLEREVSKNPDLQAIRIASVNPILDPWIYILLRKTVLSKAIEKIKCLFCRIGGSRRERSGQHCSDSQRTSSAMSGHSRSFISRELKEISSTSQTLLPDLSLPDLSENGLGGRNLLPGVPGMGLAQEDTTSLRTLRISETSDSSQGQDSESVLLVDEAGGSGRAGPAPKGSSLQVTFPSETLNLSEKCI

With `N#C[C@@H]1C[C@@H](O)[C@H](C#Cc2ccccc2)[C@H]1CCCc1ccc(C(=O)O)s1` [Example 22, 5-(3-((1S,2S,3R,5R)-5-cyano-3-hydroxy-2-(phenylethynyl)cyclopentyl)propyl)thiophene-2-carboxylic acid], the values for the Ki in assay [1] and in assay [6] were 587 nM and 13 nM, respectively. The EC50 in assay [2] was > 10000 nM; in assay [3] it was 21200 nM; in assay [4], 235 nM; in assay [5] it was 0.18 nM.
For `O=C(O)c1ccc(CCC[C@H]2C(C(F)(F)F)C[C@@H](O)[C@@H]2C#Cc2ccccc2)s1` (single isomer, unassigned) [Example 23], the concentration for a half-maximal effect (EC50) in assay [2] worked out at 7100 nM; in assay [4], 79 nM; in assay [5], 3 nM. The same compound displayed a Ki in assay [6] of 30 nM.
Turning to `O=C(O)c1ccc(CCC[C@@H]2[C@@H](/C=C\c3cc(Cl)nc(Cl)c3)[C@H](O)C[C@H]2Cl)s1` [Example 5, 5-(3-((1R,2R,3R,5R)-5-chloro-2-((Z)-2-(2,6-dichloropyridin-4-yl)vinyl)-3-hydroxycyclopentyl)propyl)-thiophene-2-carboxylic acid], the Ki in assay [1] came out at 1990 nM; in assay [6], 38 nM. In addition, the EC50 in assay [7] came to 2100 nM; in assay [3], 1920 nM; in assay [4], 458 nM; in assay [5], 3 nM.
`O=C(O)c1csc(SCC[C@@H]2[C@@H](C#Cc3ccccc3)[C@H](O)C[C@H]2Cl)n1` [Example 35, 2-(2-((1R,2S,3R,5R)-5-chloro-3-hydroxy-2-(phenylethynyl)cyclopentyl)ethylthio)thiazole-4-carboxylic acid]: the Ki was 463 nM in assay [1] and 5 nM in assay [6]. Moreover, the EC50 in assay [2] amounted to 1500 nM; in assay [7], 1030 nM; in assay [3], 10 nM; in assay [5] it was 0.08 nM.
With `O=C(O)c1ccc(C=CC[C@@H]2[C@@H](C=Cc3cc(Cl)cc(Cl)c3)[C@H](O)C[C@H]2Cl)s1` [Example 1, 5-(3-((1R,2R,3R,5R)-5-chloro-2-(3,5-dichlorostyryl)-3-hydroxycyclopentyl)prop-1-enyl)thiophene-2-carboxylic acid], the Ki was determined as 440 nM in assay [1] and 2.2 nM in assay [6]. For the same compound, the EC50 in assay [8] was > 10000 nM; in assay [2], > 10000 nM; in assay [3] it was > 10000 nM; in assay [4] it was 37 nM; in assay [5], 0.2 nM.
For `O=C(O)c1ccc(CCC[C@@H]2[C@@H](/C=C/c3cc(Cl)cc(CO)c3)[C@H](O)C[C@H]2Cl)s1` [Example 2, 5-(3-((1R,2R,3R,5R)-5-chloro-2-(3-chloro-5-(hydroxymethyl)styryl)-3-hydroxycyclopentyl)propyl)-thiophene-2-carboxylic acid], the values for the Ki in assay [1] and in assay [6] were 135 nM and 2 nM, respectively. The EC50 was > 10000 nM in assay [7], > 10000 nM in assay [3], 85 nM in assay [4] and 0.13 nM in assay [5].
For `C=CCCc1cccc(/C=C/[C@@H]2[C@@H](CCCc3ccc(C(=O)O)s3)[C@H](Cl)C[C@H]2O)c1` [Example 9, 5-(3-((1R,2R,3R,5R)-2-(3-(but-3-enyl)styryl)-5-chloro-3-hydroxycyclopentyl)propyl)thiophene-2-carboxylic acid], the values for the Ki in assay [1] and in assay [6] were 288 nM and 0.7 nM, respectively. Moreover, the EC50 in assay [2] came out at 5780 nM; in assay [3], 17300 nM; in assay [4] it was 72 nM; in assay [5], 0.03 nM.
As to `O=C(O)c1ccc(CCC[C@@H]2[C@@H](C#Cc3cccs3)[C@H](O)C[C@H]2Cl)s1` [Example 28, 5-(3-((1R,2S,3R,5R)-5-chloro-3-hydroxy-2-(thiophen-2-ylethynyl)cyclopentyl)propyl)thiophene-2-carboxylic acid], the Ki worked out at 825 nM in assay [1] and 10 nM in assay [6]. Moreover, the EC50 in assay [2] amounted to 6520 nM; in assay [7], 18300 nM; in assay [3], 5880 nM; in assay [5], 0.8 nM.
In the case of `O=C(O)c1ccc(CCC[C@@H]2[C@@H](C#Cc3ccccc3)[C@H](O)C[C@H]2F)s1` [Example 19, 5-(3-((1R,2S,3R,5R)-5-fluoro-3-hydroxy-2-(phenylethynyl)cyclopentyl)propyl)thiophene-2-carboxylic acid], the Ki in assay [1] was 1020 nM; in assay [6] it was 4 nM. Moreover, the EC50 is > 10000 nM in assay [2], 26600 nM in assay [3], 349 nM in assay [4] and 0.23 nM in assay [5].
In the case of `O=C(O)c1ccc(CCC[C@H]2C(=O)C[C@@H](O)[C@@H]2C#Cc2ccccc2)s1` [Example 17, 5-(3-((1R,2S,3R)-3-hydroxy-5-oxo-2-(phenylethynyl)cyclopentyl)propyl)thiophene-2-carboxylic acid], the Ki was 700 nM in assay [1] and 5 nM in assay [6]. Moreover, the EC50 in assay [2] amounted to 11000 nM; in assay [3], 33800 nM; in assay [4], 9 nM; in assay [5], 0.05 nM.
`O=C(O)c1ccc(CCC[C@@H]2[C@@H](/C=C\c3cc(F)cc(F)c3)[C@H](O)C[C@H]2Cl)s1` [Example 7, 5-(3-((1R,2R,3R,5R)-5-chloro-2-((Z)-3,5-difluorostyryl)-3-hydroxycyclopentyl)propyl)thiophene-2-carboxylic acid]: the Ki in assay [1] amounted to 3220 nM; in assay [6], 425 nM. The EC50 in assay [8] was determined as 95 nM; in assay [7], 6370 nM; in assay [4] it was 7140 nM; in assay [5], 207 nM.
Regarding `O=C(O)c1csc(SCC[C@@H]2[C@@H](/C=C/c3cc(Cl)cc(Cl)c3)[C@H](O)C[C@H]2Cl)n1` [Example 14, 2-(2-((1R,2R,3R,5R)-5-chloro-2-(3,5-dichlorostyryl)-3-hydroxycyclopentyl)ethylthio)thiazole-4-carboxylic acid], the figures for the Ki in assay [1] and in assay [6] were 616 nM and 1.2 nM, respectively. The EC50 in assay [2] was found to be 3880 nM; in assay [3], 3460 nM; in assay [4] it was 7 nM; in assay [5] it was 0.04 nM.
As to `O=C(O)c1csc(SCC[C@@H]2[C@@H](C#Cc3cc(Cl)cc(Cl)c3)[C@H](O)C[C@H]2Cl)n1` [Example 34, 2-(2-((1R,2S,3R,5R)-5-chloro-2-((3,5-dichlorophenyl)ethynyl)-3-hydroxycyclopentyl)ethylthio)thiazole-4-carboxylic acid], the Ki stood at 60 nM in assay [1] and 1.5 nM in assay [6]. The EC50 in assay [2] is 2880 nM; in assay [7], 14800 nM; in assay [3], 3.3 nM; in assay [5] it was 0.16 nM.
In the case of `O=C(O)c1ccc(CCC[C@@H]2[C@@H](/C=C/c3cc(F)cc(F)c3)[C@H](O)C[C@H]2Cl)s1` [Example 6, 5-(3-((1R,2R,3R,5R)-5-chloro-2-((E)-3,5-difluorostyryl)-3-hydroxycyclopentyl)propyl)thiophene-2-carboxylic acid], the figures for the Ki in assay [1] and in assay [6] were 878 nM and 7 nM, respectively. For the same compound, the EC50 in assay [8] is 65300 nM; in assay [3] it was > 10000 nM; in assay [4], 22 nM; in assay [5], 0.3 nM.
`CCc1cccc(C#C[C@@H]2[C@@H](CCCc3ccc(C(=O)O)s3)[C@H](Cl)C[C@H]2O)c1` [Example 26, 5-(3-((1R,2S,3R,5R)-5-chloro-2-((3-ethylphenyl)ethynyl)-3-hydroxycyclopentyl)propyl)thiophene-2-carboxylic acid]: the results for the Ki in assay [1] and in assay [6] were 316 nM and 0.3 nM, respectively. Also, the figures for the EC50 in assay [3], in assay [4] and in assay [5] were 616 nM, 56 nM and 0.08 nM, respectively.
